Experiments:
LX2 human stellate cells = test: Tgf-β driven activation of LX2 human stellate cells with Fasn inhibitor; format: cell-based
Protocol: In vitro screening of LX2 human stellate cells was executed by plating 500,000 cells/well in 6-well plates overnight at 37° C., 5% CO2 in 0% FBS DMEM medium (11885-076, Gibco). Following a 4-hour pre-treatment with 1 nM or 100 nM Fasn inhibitor (TVB-3664-S8563, Selleck Chemicals), stellate cell activation was initiated by adding recombinant human Tgf-β (240-B-002, R & D Systems) for a 5 ng/mL final concentration. After 48 hours, protein and mRNA were isolated from the cells and further analysis was performed.
Frozen liver tissue punches (25-50 mg) were homogenized in TRIzol (15596018, Thermo Scientific) using the Qiagen TissueLyser II. Chloroform was added to the homogenate and centrifuged for 15 minutes at maximum speed. The clear upper layer was added to an equal volume of 100% isopropanol and incubated for 1 h at 4° C. After 10 min of centrifugation at maximum speed, the supernatant was discarded, and 70 to 75% ethanol was added to wash the pellet. After 5 min of centrifugation at maximum speed, the supernatant was discarded, and the pellet was briefly dried in the hood prior to resuspension in double-distilled water. RNA concentration was measured via the Thermo Scientific NanoDrop2000 spectrophotometer. Complementary DNA was then synthesized from 1 μg of total RNA using iScript cDNA Synthesis Kit (1708890, Bio-Rad) and Bio-Rad T100 thermocycler. Quantitative RT-PCR was performed using iQ SybrGreen Supermix (4368708, Applied Biosystems) on the Bio-Rad CFX96 C1000 Touch Thermal Cycler and analyzed.
(§1) In the analysis of protein expression, cell lysates were homogenized in a RIPA buffer (25 mM Tris, pH 7.4 0.15 M NaCl 0.1% Tween 20) with 1:100 protease inhibitor (78442, Thermo Scientific). The lysates were denatured by boiling, separated on a 4 to 15% SDS/polyacrylamide gel electrophoresis gel (567-1094, Bio-Rad), and transferred to a nitrocellulose membrane (1704159, Bio-Rad). The membrane was blocked using TBS-T with 5% BSA for 1 hour at room temperature and incubated using p-SMAD3 (ab52903, Abcam), type I collagen (1310-30, Southern Biotech), and GAPDH (5174, Cell Signaling). The blot was further washed in TBS-T and incubated at room temperature with its corresponding secondary antibody for 30 minutes. Following another wash, the blot was incubated with ECL (32106, Thermo Scientific) and visualized with the ChemiDox XRS+ image-forming system.
To investigate the role of palmitate production in stellate cell activation, LX2 human stellate cells were treated with a validated, potent and specific small molecule inhibitor of Fasn, TVB-3664, at a final concentration of either 1 nM or 100 nM for 4 hours. Cells were then subjected to 5 ng/mL Tgf-β, a strong stimulator of stellate cell activation. Forty-eight hours later, the morphology of activated stellate cells, with increased cell size and elongation of spindle-like structures, was easily observed in Tgf-β treated cells.

FASN = test: Cholesterol conjugated Fasn-2314 in Tgfb activated Lx2 cells, Western blotting; format: cell-based, human; conditions: 1.5 uM, Tgfb 5 ng/ml
Protocol: as §1
Moreover, the protein level of Smad3 was also measured for untreated control, cholesterol conjugated non-targeting control, and cholesterol conjugated Fasn-2314. 1×10^6 of human Lx2 cells were plated in 10 cm2 plates and treated with 1.5 uM cholesterol conjugated Fasn-2314. 24 hrs post treatment Lx2 cells were activated with Tgfb (5 ng/ml) to induce fibrotic phenotype. 48 hrs post activation cells were harvested and processed for Western blotting analysis.

[1] = LX2 cells, 1 nM or 100 nM, 4 hours, then 5 ng/mL Tgf-β, 48 hours

Compound | Tgf-β-induced type 1 collagen protein expression (LX2 human stellate cells; [1]) | mRNA levels of Acta2 (LX2 human stellate cells; [1]) | mRNA levels of Col1a1 (LX2 human stellate cells; [1]) | morphological change of activated stellate cells (LX2 human stellate cells; [1]) | phosphorylated SMAD3 protein (LX2 human stellate cells; [1]) | Cpt1a gene expression (LX2 human stellate cells; Tgf-β activated LX2 cells) | Hsp47 gene expression (LX2 human stellate cells; Tgf-β activated LX2 cells) | Nrf2 gene expression (LX2 human stellate cells; Tgf-β activated LX2 cells) | Pgc-1α gene expression (LX2 human stellate cells; Tgf-β activated LX2 cells) | Pparα gene expression (LX2 human stellate cells; Tgf-β activated LX2 cells) | Sirt1 gene expression (LX2 human stellate cells; Tgf-β activated LX2 cells) | anti-fibrotic effect (LX2 human stellate cells; Tgf-β activated LX2 cells) | expression of Nox4 (LX2 human stellate cells; Tgf-β activated LX2 cells) | LC3II protein (autophagy) (FASN) | activation and collagen production in Tgfb treated stellate cells (FASN) | p62 protein (autophagy) (FASN) | phosphorylation of SMAD3 (FASN)
COCc1[nH]c(C(F)(F)F)nc1-c1cc(C(=O)N2CC(c3ccc(C#N)cc3)C2)c(C)cc1C [TVB-3664] | blocked | reduction | reduction | severely inhibited | reduced | reduction | reduction | remarkable upregulation | remarkable upregulation | remarkable upregulation | remarkable upregulation | strong anti-fibrotic effect | reduction in expression | – | – | – | –
FASN 2314: siRNA targeting human FASN; antisense SEQ ID NO: 56, TegChol sense SEQ ID NO: 57 (sense CCGAGUACAAUGUCAA; antisense UUGACAUUGUACUCGGCGGUU; sugars by position and backbone not given here; 2'-F/2'-OMe modifications not assigned, TegChol cholesterol on sense, further chemistry not fully specified) | – | – | – | – | – | – | – | – | – | – | – | – | – | accumulation | blunted | accumulation | blunted
